Data taken from patent US20090076092A1, “METHOD FOR DISRUPTING REPRODUCTIVE PERFORMANCE OF ARTHROPODS” (priority 2006, published 2009).

Key:
[1] = system: housefly, Musca domestica (L.); assay: Test A: reproductive performance of adult houseflies after spray at sub-lethal concentration; format: in vivo; details: 2 ppm spray of adults; totaled on the 8th day after treatment
Text: For evaluating housefly, Musca domestica (L.), each test unit consisted of a pair of virgin adult female and male houseflies of similar age (±1 day). To obtain the adult flies used in the study, pupae of approximately the same age (±1 day) were separated by sex, and placed in separate containers until adults emerged.
(§1) The LC20 sub-lethal dose of Compound 2 on the housefly was estimated to be 2 ppm using probit analysis extrapolation based on the preliminary dose-response curves obtained at concentrations of 50, 100, 500 and 1000 ppm. Two treatments consisted of Compound 2 at 2 ppm and a control without test compound. Each treatment had 10 replicates.
After emergence, the adult houseflies were placed in a meshed cage and were sprayed with test solutions using a belt sprayer. Test solutions were applied using a compressed air-propelled (moving) belt sprayer equipped with an 8001E Tee Jet flat fan spray nozzle. The nozzles were positioned at about 20 cm above the test unit, and calibrated at 276 kPa to deliver volumes equivalent to 500 L/ha. […]
Observations of the number of eggs laid per adult female were made daily for 7 days. The cotton wicks containing eggs were removed daily and counted, and then kept in a growth chamber at 26° C., 75% relative humidity and 16 hours of light per day to allow egg hatching and emergence of neonates. […]

housefly = assay: Dose-finding test for sub-lethal dose on housefly; format: in vivo, Musca domestica; details: probit analysis extrapolation from preliminary dose-response curves at 50, 100, 500 and 1000 ppm
Text: (§2) The sub-lethal concentrations or doses used in the various tests for the specific pest species and populations tested in the context of the present invention were estimated from multiple-rate, dose-finding tests to determine the control rates and activity break rates. […] Therefore, depending on the target pest species, either the LC50 or a suitable concentration between LC50 and LC20 was selected as the sub-lethal dose. The specific procedures used to select the respective doses are described in each Test.
as §1

[2] = system: green peach aphid (Myzus persicae Sulzer); assay: Test B: nymph production by green peach aphid after 24 hours exposure on treated radish plants; format: in vivo; details: for Living (%) / On plant (%): 1 DAT; for Living (%): all aphids alive 24 h after treatment; for On plant (%): all aphids on the treated plant
Protocol: For evaluating reproductive performance effects on green peach aphid (Myzus persicae Sulzer), each test unit consisted of a radish plant grown in a 6 cm×6 cm square pot infested with a mixed population (nymphs and adults) of green peach aphids from a laboratory-reared culture. Each plant was infested with about 100 aphids. Test solutions were prepared and sprayed on the test plants (2 plants per treatment) as described for TEST A. Treatments included Compound 1 at 100 and 500 ppm, Compound 2 at 4 and 6 ppm, and a control without test compound.
Aphids were kept on the treated plants for 24 hours, and then only adult aphids staying on the treated plant were transferred to untreated radish plants grown singly in a 6 cm×6 cm square pots. One test unit or one replicate consisted of a single adult aphid on a radish plant in a pot. The number of nymphs in each replicate was counted 4 and 6 days after treatment. At the higher concentration of each test compound a total of 45 replicates were used, and at the lower concentration of each test compound a total of 30 replicates were used. In addition, prior to transferring aphids singly to the untreated radish plants one day after treatment (1 DAT), the total number of aphids living and those remaining on the treated plant were counted.
The results are listed in Table B. Square-root transformation was done on the number of nymphs produced per adult (female) aphid, and the data were analyzed using analysis of variance (ANOVA) and Fisher's Least Significant Difference (LSD) tests for separation of means.

adult thrips = assay: Previous study of adult thrips mortality; format: in vivo, Frankliniella occidentalis; details: read-out: adult mortality
Text: as §2
Thus, the sub-lethal concentration of Compound 2 was selected to be 10 ppm in the test treatments. Test solutions were prepared by diluting with water to the selected concentration. Treatments included Compound 2 at 10 ppm as well as a control without test compound.

[3] = system: diamondback moth (Plutella xylostella); assay: Test G: number of eggs (fecundity) of adult diamondback moth; format: in vivo; details: 10 ppm, control itself gave very few eggs
Text: For evaluating the reproductive performance effects on diamondback moth (Plutella xylostella), a minimum of 120 larvae of diamondback moth of each sex were used. Male and female individuals of late instar larvae were separated and caged in individual containers containing Chinese kale. Male diamondback moths were identified by a white dot on the abdomen at the late instar larval stage. When pupae emerged, each pupa was caged separately until it emerged as adult.
(§3) In addition, a control without test compound was included.
Groups of 40 newly emerged (<24 hours) moths of the same sex were placed inside a meshed cage. The caged adult moths were then sprayed with the test solution, using a CO2 backpack sprayer at 500 L/Ha. For the control treatment, the adults were sprayed with water at a similar spray volume. The groups of treated individuals were then transferred into a clean container with a source of adult diet (i.e. a cotton wick soaked in 10% sucrose solution). Separate containers were used for different groups of treated insects. One day after treatment, the numbers of live, moribund and dead adults were counted. One live treated male and one live treated female were placed together in a copulation cage, which was a 300 mL clear plastic cup covered with nylon screen supplied with an adult diet source of 10% sucrose solution.
Each pair of virgin adults was a replicate, and each treatment consisted of 10 to 20 replicates. Every day each pair of moths was moved to a new cup supplied with a diet of 10% sucrose solution.
The number of eggs laid per female moth was counted daily during the two days when the female moths actively produced viable eggs. The results, listed in Table G, indicate that no meaningful comparative information can be inferred, as the even the Control provided very few eggs per female moth; this indicates a systemic reproduction problem from unknown causes. However, had the Control worked, we expect to see the reproductive performance effects on diamondback moth.

diamondback moth = assay: Previous laboratory studies of diamondback moth mortality; format: in vivo; details: Plutella xylostella, read-out: mortality of the diamondback moth (LC20)
Text: as §2, §3

CNC(=O)c1cc(C#N)cc(C)c1NC(=O)c1cc(Br)nn1-c1ncccc1Cl [Compound 2, 3-bromo-1-(3-chloro-2-pyridinyl)-N-[4-cyano-2-methyl-6-[(methylamino)-carbonyl]phenyl]-1H-pyrazole-5-carboxamide]
Mean number of neonates per female [1]: 16.7
LC20 sub-lethal dose (housefly): 2 ppm
living aphids that did not stay on the plant ([2]; 4 and 6 ppm, one day after treatment): 28-48%
Living (%) ([2]; 4 ppm): 97.6%
On plant (%) ([2]; 4 ppm): 72.0%
No. of nymphs (mean ± SE) ([2]; 4 ppm, 6 DAT, per adult): 6.1 ± 0.6 a
Living (%) ([2]; 6 ppm): 82.3%
On plant (%) ([2]; 6 ppm): 51.1%
mortality at 10 ppm (adult thrips): < 50%
No. of eggs per female moth ([3]; 1 DAT): 0
No. of eggs per female moth ([3]; 2 DAT): 0.2
mortality at 10 ppm (diamondback moth): ~20%
